Source: patent US10952992B2, “Methods of treating intraocular pressure with activators of Tie-2” (Aerpio Pharmaceuticals, Inc., priority 2015, dated 2021)

Tested on: intraocular pressure, study eye/fellow eye
Assay: Intraocular pressure with Compound 1 + sham, Compound 1 + RBZ or placebo + RBZ, months 1-3 (FIG. 2, TABLE 1)
Type: in vivo, human
Protocol: The difference in IOP was determined relative to a pre-treatment baseline (Base) at months 1, 2, and 3 (M1-M3). Intraocular pressure was determined in the study eye in millimeters of mercury (mmHg). […] The difference in IOP was determined relative to a pre-treatment Baseline at Months 1, 2, and 3. Intraocular pressure was determined in the study eye/fellow eye in mmHg.

placebo + RBZ: a placebo combined with RBZ (ranibizumab)
IOP, fellow eye (Baseline (pre-treatment)): 15.8 mmHg | IOP, study eye (Baseline (pre-treatment)): 15.2 mmHg | IOP, fellow eye (Month 1): 15.5 mmHg | IOP, study eye (Month 1): 15.0 mmHg | IOP, fellow eye (Month 2): 15.5 mmHg | IOP, study eye (Month 2): 15.0 mmHg | IOP, fellow eye (Month 3): 15.7 mmHg | IOP, study eye (Month 3): 15.3 mmHg
